Assay results from PMC7607171, “Optimized low‐dose combinatorial drug treatment boosts selectivity and efficacy of colorectal carcinoma treatment” (Molecular Oncology, 2020).
Where “and” joins values, the source holds several entries; their conditions need not be identical. Identical values can stand only once. Like-named read-outs stand apart in the source and are kept apart here.

How the values were obtained:
[1] = Serum and intratumor drug concentration at experimental endpoint, DLD1 model; format: in vivo, mice; settings: for concentration at 1 h / Kp at 1 h: Swiss Nu/nu, mouse, oral; for concentration at 1 h: 1h post-treatment at endpoint (day 15); for Kp at 1 h: tumor vs serum, read-out: ratio tumor vs serum; for Kp at 1 h / ratio ODC vs single drug: DLD1 model
Method: At the experimental endpoint, plasma and tumors were collected 1h post‐treatment and part of the tumor tissue was used to determine the intratumor drug concentrations. Plasma and tumor samples were analyzed using the same LC‐MS/MS method used for drug determination in DBS. Before analysis, tumor tissues were homogenized in a 1 mL mixture of water/acetonitrile (30/70). Hundred uL of homogenates were transferred into new tubes and 50 µL of acetonitrile, as well as 50 µL of a mix of internal standards in MeOH were added. Tubes were vortexed and centrifuged for 10 min at 9,000 rpm. The supernatant (100 µL) was evaporated under nitrogen and reconstituted in 100 µL of acetonitrile with 0.1% formic acid/water with 0.1% formic acid (30/70). 10 µL was then injected into the LC‐MS/MS system. Plasma samples were spotted onto the same paper used for whole blood analysis and were extracted and analyzed using the same methods as used for DBS.

[2] = Pharmacokinetics, dried blood spot LC-MS/MS, mice with DLD1 tumors; format: in vivo; settings: for Tmax / AUC(0-t) / Cmax: Swiss Nu/nu, mouse, whole blood (dried blood spot), po, regorafenib 15, erlotinib 12.5, selumetinib 5, vemurafenib 75 mg/kg; for AUC(0-t) / Cmax: whole blood, mean ± SD; for AUC(0-t): oral, read-out: AUC0-24h
Method: The pharmacokinetic (PK) study was performed using the dried blood spot method. Mice were treated with CTRL, ODCs, and corresponding monotherapies as described above. To determine the disposition in blood in the first 24h, blood samples (5 µL/mouse) were collected from the tail vein (n = 4 mice) at 2h, 4h, 8h, and 24h time points and transferred onto paper (a filter paper 903 protein saver card from Whatman (MA, USA)). A disk with the entire spot was punched from the paper card and transferred to the HPLC vial tube. Hundred µL of MeOH containing a mix of internal standards was added, and the tube was vortex‐mixed for about 1 min before injecting 10 µL into the LC‐MS/MS system. The LC‐MS/MS system consisted of an API 4,000 triple quadrupole mass spectrometer (AB sciex, Concord, ON, Canada) controlled by analyst 1.6.1 software. The mass spectrometer was operated in the multiple reaction monitoring (MRM) mode with positive electrospray ionization. The instrument was coupled with an Agilent series 1100 (Waldbronn, Germany) LC system. Chromatography was performed on a Phenomenex Kinetex C18 analytical column (50 mm x 2.1 mm, 2.6 um; Torrance, CA, USA). The flow rate was 0.5 mL/min using gradient elution conditions. The method was fully validated before application to this pharmacokinetic study.

[3] = 0-24h; ref EPAR WC00033991; cited from earlier work
DLD1 tumors = assay: Subcutaneous xenograft tumor growth; format: in vivo, Swiss nu/nu mice
Method: All procedures including animal use were performed in accordance with the Institutional Ethical Committee of Animal Care in Geneva and the Swiss Cantonal Veterinary Office (Authorization number GE‐136‐19). Briefly, female and male Swiss nu/nu mice aged 6–8 weeks were obtained from Charles River (Écully, France). For subcutaneous xenografts mice were inoculated in the left flank with 5x10^6 DLD1 or SW620 cells suspended in 100 µL of cell culture medium, supplemented with 1% FBS.
Drugs were administered through oral gavage based on average body weight of the males (100 µL/mouse) and females (80 µL/mouse) at various concentrations, see Tables S10 and S11.
Solution A: step (1) 30% PEG 400 + 5% propylene glycol + 0.5% Tween 80 and (2) 64.5% sterile H2O. Solution B: step (1) 10% DMSO, (2) 30% PEG 300 + 5% Tween 80 and (3) 55% sterile H2O. […] FOLFOX was administered as 6 mg/kg oxaliplatin two hours before administration of 90 mg/kg leucovorin and 50 mg/kg (DLD1) or 25 mg/kg (SW620) 5‐fluorouracil at day 1 and a repeat of 5‐fluorouracil dosing on day 2.
The Bliss independence model can be used to evaluate the drug interaction potential of a drug mixture. […] The model is based on the probability theory and requires the drug activity of each drug at the selected dose to predict the inhibition rate (IR) at additive doses.

[4] = Clinical plasma pharmacokinetics in patients, plasma concentration limit calculation; format: in vivo; settings: average plasma concentration calculated from AUC0-24h in patients
Method: To select for clinically relevant doses, the clinically attainable drug concentration measured in the blood plasma of patients after treatment is used to calculate the concentration limit for in vitro experiments. […] The average drug concentration is calculated from the AUC0–24h and is implemented as the plasma concentration limit (PCL) which drug dose selection must remain below for in vitro experiments. If a drug is FDA approved, the AUC0–24h selected is the one corresponding to the recommended dose in clinical practice. If a drug is in clinical trials, the AUC0–24h selected is the one corresponding to the maximum tolerated dose in early stage clinical trials. Note, experiments were conducted with the most current PCL calculated from the AUC0–24h information available at the start of experiments (December 2017), see Table S4.

[5] = given as part of DLD1-specific ODC
[6] = erlotinib 5 mg/kg, Exp 1, Day 11
[7] = erlotinib 12.5 mg/kg, Exp 1, Day 11
[8] = erlotinib 12.5 mg/kg, Exp 5, Day 16
[9] = erlotinib 12.5 mg/kg, Exp 7, Day 15

With `C#Cc1cccc(Nc2ncnc3cc(OCCOC)c(OCCOC)cc23)c1` [erlotinib] the concentration at 1 h ([1]; serum, as part of ODC, regorafenib 15, erlotinib 12.5, selumetinib 5, vemurafenib 75 mg/kg, read-out: concentration serum) was 3040 ± 910 ng/mL, the concentration at 1 h ([1]; serum, single drug, regorafenib 15, erlotinib 12.5, selumetinib 5, vemurafenib 75 mg/kg, read-out: concentration serum) was 2330 ± 180 ng/mL and the concentration at 1 h ([1]; tumor (DLD1), as part of ODC, DLD1 tumor, doses as E156, read-out: concentration tumor) was 7600 ± 3200 ng/g. It also gave a concentration at 1 h ([1]; tumor (DLD1), single drug, DLD1 tumor, doses as E156, read-out: concentration tumor) of 3620 ± 140 ng/g, a Kp at 1 h ([1]; as part of ODC) of 2.5 and a Kp at 1 h ([1]; single drug) of 1.55. For the same compound, the “ratio ODC vs single drug” value ([1]; serum) was 1.31, the “ratio ODC vs single drug” value ([1]; tumor) was 2.10 and the Tmax [2, 5] was 2 h. For the same compound, the AUC(0-t) [2, 5] was 22300 ± 5140 ng·h/mL, the Cmax [2, 5] was 3370 ± 2160 ng/mL and the Tmax ([2]; mono) was 2 h. For the same compound, the AUC(0-t) ([2]; mono) was 19600 ± 7660 ng·h/mL, the Cmax ([2]; mono) was 2610 ± 860 ng/mL and the “increase of AUC as part of the ODC vs single-drug treatment” value ([2]; mice with DLD1 tumors, AUC0-24h) was 1.14 x. For the same compound, the AUC [3] was 15.2 mg*h/L EPAR WC00033991, the “% CTRL (tumor volume)” value (DLD1 tumors; [6]) was 104 72 27 % CTRL and the Volume (DLD1 tumors; [6]) was 482 336 127 mm^3. The “% CTRL (tumor volume)” value (DLD1 tumors; [7]) was 87 35 13 % CTRL, the Volume (DLD1 tumors; [7]) was 405 161 61 mm^3 and the “% CTRL (tumor volume)” value (DLD1 tumors; [8]) was 66 28 12 % CTRL. For the same compound, the Volume (DLD1 tumors; [8]) was 420 178 80 mm^3, the “% CTRL (tumor volume)” value (DLD1 tumors; [9]) was 98 44 22 % CTRL and the Volume (DLD1 tumors; [9]) was 420 211 86 mm^3. For the same compound, the “PCL (plasma concentration limit)” value [4] was 1.61 µM and 1.6 µM.
